In US6517870B1, “Oral formulation comprising biguanide and an organic acid” (Sumitomo Pharmaceuticals Company, Limited, priority 1998, dated 2003):
Structures can show the parent of a compound that is named as a salt.

Assay: Stability experiment: remaining amount of metformin by HPLC after heating
Type: physicochemical
Conditions: below pH 3.5
Procedure: Tasting and stability experiments on the solutions at various pH of Example 13 were carried out, in the same manner as Experiment 1. A stability experiment was carried out by measuring the remaining amount of metformin in the solutions with HPLC after heating the solutions in vials at 60 C. for 2 weeks.

SMILES: CN(C)C(=N)N=C(N)N [Metformin hydrochloride]
- stability in solution: not stable
